Columns and labels:
[1] = molecular target: Vascular endothelial growth factor receptor 2 (Homo sapiens, UniProt P35968); experiment: Inhibition of Vascular endothelial growth factor receptor 2
[2] = molecular target: Vascular endothelial growth factor receptor 1 (Homo sapiens, UniProt P17948); experiment: Inhibition of vascular endothelial growth factor receptor 1
[3] = molecular target: Cyclin-dependent kinase 1 (Homo sapiens, UniProt P06493); experiment: Inhibition of Cyclin-dependent kinase 1
[4] = molecular target: Insulin-like growth factor 1 receptor (Homo sapiens, UniProt P08069); experiment: Inhibition of Insulin-like growth factor I receptor
[5] = molecular target: cAMP-dependent protein kinase (PKA) (Homo sapiens, UniProt P22694+P17612+P22612); experiment: Inhibition of Protein kinase A; type: protein assay
[6] = molecular target: Mast/stem cell growth factor receptor Kit (Homo sapiens, UniProt P10721); experiment: Inhibition of Proto-oncogene tyrosine-protein kinase Kit
[7] = molecular target: Hepatocyte growth factor receptor (Homo sapiens, UniProt P08581); experiment: Inhibition of Met proto-oncogene tyrosine kinase
Hepatocyte growth factor receptor, sequence (P08581 whole entry): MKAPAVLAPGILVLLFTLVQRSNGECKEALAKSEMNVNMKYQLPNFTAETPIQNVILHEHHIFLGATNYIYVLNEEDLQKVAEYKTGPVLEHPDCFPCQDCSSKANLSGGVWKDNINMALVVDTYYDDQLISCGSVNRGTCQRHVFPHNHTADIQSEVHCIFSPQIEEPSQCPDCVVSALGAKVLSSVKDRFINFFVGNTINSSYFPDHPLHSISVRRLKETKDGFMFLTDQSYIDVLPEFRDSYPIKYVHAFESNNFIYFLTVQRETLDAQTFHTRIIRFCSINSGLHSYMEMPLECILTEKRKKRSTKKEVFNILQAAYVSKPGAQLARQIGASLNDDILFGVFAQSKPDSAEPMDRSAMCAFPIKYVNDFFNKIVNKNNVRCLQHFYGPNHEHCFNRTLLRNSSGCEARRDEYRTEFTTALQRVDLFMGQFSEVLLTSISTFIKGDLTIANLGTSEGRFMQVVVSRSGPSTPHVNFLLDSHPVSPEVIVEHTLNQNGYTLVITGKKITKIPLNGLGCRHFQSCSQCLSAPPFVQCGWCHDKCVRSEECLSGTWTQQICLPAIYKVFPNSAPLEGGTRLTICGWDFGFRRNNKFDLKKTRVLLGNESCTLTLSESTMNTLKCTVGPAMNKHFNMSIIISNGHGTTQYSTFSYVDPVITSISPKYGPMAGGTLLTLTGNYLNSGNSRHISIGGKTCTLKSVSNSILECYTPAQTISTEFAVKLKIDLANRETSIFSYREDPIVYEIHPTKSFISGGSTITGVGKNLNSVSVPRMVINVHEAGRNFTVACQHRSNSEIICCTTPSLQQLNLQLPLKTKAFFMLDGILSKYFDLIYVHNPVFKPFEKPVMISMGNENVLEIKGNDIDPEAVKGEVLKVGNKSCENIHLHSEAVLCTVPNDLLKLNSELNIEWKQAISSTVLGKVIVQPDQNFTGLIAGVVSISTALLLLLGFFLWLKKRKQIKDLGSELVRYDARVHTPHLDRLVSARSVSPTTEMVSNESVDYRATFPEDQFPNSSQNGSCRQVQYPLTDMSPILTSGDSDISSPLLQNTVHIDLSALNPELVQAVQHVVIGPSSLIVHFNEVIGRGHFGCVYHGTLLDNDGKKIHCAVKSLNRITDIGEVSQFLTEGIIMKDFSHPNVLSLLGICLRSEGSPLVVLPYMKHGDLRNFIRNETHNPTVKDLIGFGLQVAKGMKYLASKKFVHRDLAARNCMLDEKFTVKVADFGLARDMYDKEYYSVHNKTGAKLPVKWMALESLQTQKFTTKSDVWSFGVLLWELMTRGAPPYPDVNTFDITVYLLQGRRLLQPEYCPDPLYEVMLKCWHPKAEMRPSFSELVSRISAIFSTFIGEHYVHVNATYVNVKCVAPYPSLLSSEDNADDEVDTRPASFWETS

Vascular endothelial growth factor receptor 2, sequence (P35968 whole entry): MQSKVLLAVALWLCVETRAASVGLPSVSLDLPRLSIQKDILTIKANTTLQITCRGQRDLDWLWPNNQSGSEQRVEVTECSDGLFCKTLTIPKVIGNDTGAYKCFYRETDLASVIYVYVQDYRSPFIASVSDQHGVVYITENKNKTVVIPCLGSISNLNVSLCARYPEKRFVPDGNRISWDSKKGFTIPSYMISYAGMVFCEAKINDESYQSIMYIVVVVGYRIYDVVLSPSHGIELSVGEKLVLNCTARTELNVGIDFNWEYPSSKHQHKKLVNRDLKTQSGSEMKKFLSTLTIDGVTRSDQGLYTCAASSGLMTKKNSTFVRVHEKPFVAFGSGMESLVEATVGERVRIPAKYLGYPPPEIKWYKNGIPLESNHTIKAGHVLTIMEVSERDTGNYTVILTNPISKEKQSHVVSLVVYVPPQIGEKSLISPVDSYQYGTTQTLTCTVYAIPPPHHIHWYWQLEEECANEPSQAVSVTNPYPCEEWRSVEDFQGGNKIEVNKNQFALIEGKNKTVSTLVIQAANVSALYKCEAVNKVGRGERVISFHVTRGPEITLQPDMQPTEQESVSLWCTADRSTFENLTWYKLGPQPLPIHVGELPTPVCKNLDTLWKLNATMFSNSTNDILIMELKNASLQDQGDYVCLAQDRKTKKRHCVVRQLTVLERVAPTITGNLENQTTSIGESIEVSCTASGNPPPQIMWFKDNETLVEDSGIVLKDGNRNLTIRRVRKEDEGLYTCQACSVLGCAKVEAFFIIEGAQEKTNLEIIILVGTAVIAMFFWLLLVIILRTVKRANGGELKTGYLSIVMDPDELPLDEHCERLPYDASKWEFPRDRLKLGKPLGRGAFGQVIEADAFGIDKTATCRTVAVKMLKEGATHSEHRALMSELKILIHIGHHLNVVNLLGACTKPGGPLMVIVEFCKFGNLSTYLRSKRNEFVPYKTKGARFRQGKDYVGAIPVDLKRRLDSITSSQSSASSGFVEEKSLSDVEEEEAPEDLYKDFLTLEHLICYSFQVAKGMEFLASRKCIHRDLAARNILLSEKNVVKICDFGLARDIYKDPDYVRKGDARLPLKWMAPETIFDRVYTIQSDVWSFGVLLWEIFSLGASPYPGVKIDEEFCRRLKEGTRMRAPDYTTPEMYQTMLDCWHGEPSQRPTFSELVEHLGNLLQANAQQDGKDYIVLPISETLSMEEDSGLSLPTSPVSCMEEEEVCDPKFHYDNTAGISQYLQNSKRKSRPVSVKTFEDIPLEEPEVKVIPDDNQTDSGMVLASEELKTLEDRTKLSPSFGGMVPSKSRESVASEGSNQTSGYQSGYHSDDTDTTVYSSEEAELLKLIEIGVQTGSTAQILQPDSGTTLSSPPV
Insulin-like growth factor 1 receptor, sequence (P08069 31-736 limits assumed): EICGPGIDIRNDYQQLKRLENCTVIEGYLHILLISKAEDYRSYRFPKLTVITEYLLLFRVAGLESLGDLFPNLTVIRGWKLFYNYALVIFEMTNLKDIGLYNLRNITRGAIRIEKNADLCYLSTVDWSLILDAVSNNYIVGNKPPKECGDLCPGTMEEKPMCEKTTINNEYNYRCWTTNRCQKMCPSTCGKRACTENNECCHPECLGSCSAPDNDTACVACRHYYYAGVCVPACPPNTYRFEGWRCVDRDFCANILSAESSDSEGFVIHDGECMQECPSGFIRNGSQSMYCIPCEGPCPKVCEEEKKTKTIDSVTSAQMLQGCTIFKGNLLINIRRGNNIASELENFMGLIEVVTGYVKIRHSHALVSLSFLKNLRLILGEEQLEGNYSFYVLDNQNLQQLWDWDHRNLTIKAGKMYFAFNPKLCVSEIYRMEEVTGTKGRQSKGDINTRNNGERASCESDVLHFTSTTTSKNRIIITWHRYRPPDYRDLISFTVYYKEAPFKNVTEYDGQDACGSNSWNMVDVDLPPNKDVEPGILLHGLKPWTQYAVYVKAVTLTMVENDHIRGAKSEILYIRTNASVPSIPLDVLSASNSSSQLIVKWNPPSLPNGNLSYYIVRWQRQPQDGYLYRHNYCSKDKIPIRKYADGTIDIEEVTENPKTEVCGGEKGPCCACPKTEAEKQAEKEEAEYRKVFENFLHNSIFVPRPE
Insulin-like growth factor 1 receptor, sequence (P08069 741-1367 limits assumed): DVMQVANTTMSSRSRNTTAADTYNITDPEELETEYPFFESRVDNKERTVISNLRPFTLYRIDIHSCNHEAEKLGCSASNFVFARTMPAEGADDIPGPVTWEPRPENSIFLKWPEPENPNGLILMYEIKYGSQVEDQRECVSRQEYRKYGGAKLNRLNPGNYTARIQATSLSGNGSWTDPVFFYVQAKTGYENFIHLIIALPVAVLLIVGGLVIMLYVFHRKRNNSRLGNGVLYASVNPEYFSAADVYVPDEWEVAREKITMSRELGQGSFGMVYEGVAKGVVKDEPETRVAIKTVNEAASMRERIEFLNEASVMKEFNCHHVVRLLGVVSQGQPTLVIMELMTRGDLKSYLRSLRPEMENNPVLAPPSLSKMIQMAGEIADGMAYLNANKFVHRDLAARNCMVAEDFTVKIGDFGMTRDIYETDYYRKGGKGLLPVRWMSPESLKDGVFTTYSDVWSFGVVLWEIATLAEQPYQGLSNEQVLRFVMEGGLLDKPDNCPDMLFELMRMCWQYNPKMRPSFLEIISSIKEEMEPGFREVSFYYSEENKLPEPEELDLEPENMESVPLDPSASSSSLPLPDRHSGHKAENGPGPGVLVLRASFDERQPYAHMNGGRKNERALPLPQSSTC
Cyclin-dependent kinase 1, sequence (P06493 whole entry): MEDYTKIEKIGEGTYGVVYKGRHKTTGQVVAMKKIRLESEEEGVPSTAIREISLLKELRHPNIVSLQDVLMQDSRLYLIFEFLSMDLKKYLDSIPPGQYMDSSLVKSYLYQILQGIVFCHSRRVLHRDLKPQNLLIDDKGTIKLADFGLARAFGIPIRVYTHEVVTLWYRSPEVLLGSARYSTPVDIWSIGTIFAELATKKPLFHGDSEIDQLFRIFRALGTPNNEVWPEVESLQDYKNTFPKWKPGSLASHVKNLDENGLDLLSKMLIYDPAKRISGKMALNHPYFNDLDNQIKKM

SMILES | IC50 [1] | IC50 [2] | IC50 [3] | IC50 [4] | IC50 [5] | IC50 [6] | IC50 [7]
O=C(Nc1ccccc1F)c1ccccc1NCc1ccc(F)cc1 | 3.7 µM | 23 µM | – | – | – | – | –
O=C(Nc1ccc(Cl)cc1)c1ccccc1NCc1ccncc1 | 0.02 µM | – | > 10 µM | > 10 µM | > 10 µM | 0.24 µM | > 10 µM
